pIC50: −log10 of the molar value.
Biological target: cAMP-specific 3',5'-cyclic phosphodiesterase 4D (Homo sapiens, UniProt Q08499)
Experiment: Inhibitory Activity Assay
Experimental: Necessary amounts of test compounds were weighed, and 100% dimethylsulfoxide (DMSO) was added thereto to adjust the concentration to 10 mM. The solutions were stored in a freezer as stock solutions of each test compound. After being thawed when required, the solutions were diluted 20-fold with 100% DMSO to give a 500 μM concentration. Further, 10-fold serial dilutions were made with 100% DMSO to prepare test compounds of different concentrations. 2 μl of solutions containing one of each of the test compound were separately added into 1.2 ml tubes in which 23 μl of 20 mM Tris-HCl (pH 7.4) had been placed beforehand. 25 μl of a PDE4D enzyme solution diluted at an optimal ratio determined in (3) above were added on ice to each of the tubes, and 50 μl of a substrate solution containing 2 μM[3H] cAMP prepared by dilution with a 20 mM Tris-HCl (pH 7.4) containing 10 mM MgCl2 was added thereto. The final DMSO concentration in the reaction liquid was 2%. After mixing, the mixture was incubated for 10 minutes at 30° C. At the completion of the incubation, the tubes were placed in a bath containing boiling water for 3 minutes, and the reaction was stopped. After cooling the tubes in ice, 25 μl solution of 0.2 mg/ml snake venom was added thereto, and after mixing the mixture was incubated for 10 minutes at 30° C. […] 3H radioactivity (cpm) was measured using a TopCount.

cAMP-specific 3',5'-cyclic phosphodiesterase 4D, sequence (Q08499 whole entry): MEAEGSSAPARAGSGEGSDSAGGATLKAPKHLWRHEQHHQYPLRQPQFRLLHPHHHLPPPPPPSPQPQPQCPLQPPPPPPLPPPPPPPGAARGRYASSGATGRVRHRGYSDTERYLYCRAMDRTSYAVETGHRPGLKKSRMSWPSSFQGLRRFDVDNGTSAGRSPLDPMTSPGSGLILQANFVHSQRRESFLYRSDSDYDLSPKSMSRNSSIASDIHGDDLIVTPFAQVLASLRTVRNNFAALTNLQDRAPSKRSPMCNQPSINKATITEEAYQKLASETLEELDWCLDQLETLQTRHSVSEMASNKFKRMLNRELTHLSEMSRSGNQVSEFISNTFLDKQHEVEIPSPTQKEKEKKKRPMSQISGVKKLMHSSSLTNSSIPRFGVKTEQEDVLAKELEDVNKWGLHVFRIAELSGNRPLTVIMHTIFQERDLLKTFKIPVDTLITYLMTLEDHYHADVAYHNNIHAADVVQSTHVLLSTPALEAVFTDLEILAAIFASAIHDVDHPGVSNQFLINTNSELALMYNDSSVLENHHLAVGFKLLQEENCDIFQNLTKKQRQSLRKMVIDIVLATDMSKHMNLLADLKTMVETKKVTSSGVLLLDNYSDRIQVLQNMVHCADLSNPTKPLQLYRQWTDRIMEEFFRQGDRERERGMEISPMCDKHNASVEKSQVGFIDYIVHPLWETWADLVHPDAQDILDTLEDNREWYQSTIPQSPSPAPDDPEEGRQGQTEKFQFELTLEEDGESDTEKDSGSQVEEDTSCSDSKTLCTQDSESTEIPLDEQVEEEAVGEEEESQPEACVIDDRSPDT

In the case of `COc1ccc(-c2nc(CCC(=O)c3ncccc3OC)co2)cc1OCC1CC1` [USRE46792, 126], the pIC50 was > 7.30.

— BindingDB's records for patent USRE46792 (Otsuka Pharmaceutical, 2018)
